{
  "source": "patent US5457095A",
  "about": "“Substituted propane-phosponous acid compounds” (Ciba-Geigy Corporation, priority 1984, dated 1995)",
  "key": {"GABAB receptor sites": {"molecular_target": "GABAB receptor sites (Homo sapiens, UniProt Q9UBS5)", "sequence (Q9UBS5 15-961 limits assumed)": "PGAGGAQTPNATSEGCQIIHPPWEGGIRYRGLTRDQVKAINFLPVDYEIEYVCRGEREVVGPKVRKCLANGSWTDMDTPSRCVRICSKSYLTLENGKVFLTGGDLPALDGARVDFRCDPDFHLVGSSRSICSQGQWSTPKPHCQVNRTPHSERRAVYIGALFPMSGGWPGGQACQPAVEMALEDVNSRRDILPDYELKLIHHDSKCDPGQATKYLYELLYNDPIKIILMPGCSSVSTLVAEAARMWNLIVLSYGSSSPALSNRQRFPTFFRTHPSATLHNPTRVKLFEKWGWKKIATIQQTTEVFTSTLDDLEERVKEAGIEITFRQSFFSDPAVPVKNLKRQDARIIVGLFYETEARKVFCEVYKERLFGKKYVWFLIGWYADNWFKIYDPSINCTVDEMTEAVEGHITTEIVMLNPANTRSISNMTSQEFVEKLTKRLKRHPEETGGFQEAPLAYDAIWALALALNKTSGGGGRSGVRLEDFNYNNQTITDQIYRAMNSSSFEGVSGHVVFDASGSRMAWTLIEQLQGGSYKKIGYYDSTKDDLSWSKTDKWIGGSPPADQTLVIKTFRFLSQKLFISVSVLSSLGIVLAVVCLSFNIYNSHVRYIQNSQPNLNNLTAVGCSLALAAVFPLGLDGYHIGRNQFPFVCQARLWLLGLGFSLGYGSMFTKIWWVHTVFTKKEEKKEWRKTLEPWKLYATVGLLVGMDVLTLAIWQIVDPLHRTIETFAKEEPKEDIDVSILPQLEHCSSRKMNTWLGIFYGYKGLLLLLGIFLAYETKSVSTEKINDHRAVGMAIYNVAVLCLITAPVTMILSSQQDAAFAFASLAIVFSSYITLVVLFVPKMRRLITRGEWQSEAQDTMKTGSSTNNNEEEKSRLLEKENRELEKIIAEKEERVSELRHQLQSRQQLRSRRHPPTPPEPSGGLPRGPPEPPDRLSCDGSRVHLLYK", "sequence (O75899 42-941 partner)": "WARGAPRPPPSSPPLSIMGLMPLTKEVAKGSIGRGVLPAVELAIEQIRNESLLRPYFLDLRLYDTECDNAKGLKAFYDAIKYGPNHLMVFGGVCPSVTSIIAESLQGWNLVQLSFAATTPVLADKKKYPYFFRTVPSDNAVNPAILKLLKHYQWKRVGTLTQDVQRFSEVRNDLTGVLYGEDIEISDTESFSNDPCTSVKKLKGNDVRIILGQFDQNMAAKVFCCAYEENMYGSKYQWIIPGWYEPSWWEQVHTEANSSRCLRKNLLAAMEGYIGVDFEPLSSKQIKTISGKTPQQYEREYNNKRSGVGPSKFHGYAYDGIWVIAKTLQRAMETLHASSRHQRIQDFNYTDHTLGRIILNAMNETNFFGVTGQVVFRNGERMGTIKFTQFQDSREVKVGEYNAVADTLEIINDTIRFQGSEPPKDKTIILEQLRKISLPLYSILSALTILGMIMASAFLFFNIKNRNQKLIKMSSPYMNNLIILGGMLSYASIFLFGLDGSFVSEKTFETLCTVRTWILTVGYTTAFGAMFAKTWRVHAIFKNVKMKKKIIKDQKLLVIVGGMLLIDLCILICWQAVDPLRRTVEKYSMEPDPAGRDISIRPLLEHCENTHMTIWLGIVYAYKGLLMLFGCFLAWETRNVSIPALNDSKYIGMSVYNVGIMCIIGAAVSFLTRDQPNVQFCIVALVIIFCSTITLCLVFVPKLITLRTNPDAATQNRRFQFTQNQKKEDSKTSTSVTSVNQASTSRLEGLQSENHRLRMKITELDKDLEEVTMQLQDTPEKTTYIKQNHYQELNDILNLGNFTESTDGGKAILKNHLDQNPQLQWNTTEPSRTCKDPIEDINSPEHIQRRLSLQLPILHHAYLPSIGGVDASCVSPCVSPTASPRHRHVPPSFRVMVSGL", "test": "affinity towards GABAB receptor sites", "type": "binding"}, "rotarod mice": {"system": "rotarod mice", "test": "muscle relaxant activity, rotarod mice", "type": "in vivo", "conditions": "Mus musculus, ip, read-out: ID50-value, muscle relaxant (rotarod mice)"}, "[1]": {"system": "phenylquinone writhing in mice", "test": "analgesic activity, phenylquinone writhing in mice", "type": "in vivo", "conditions": "Mus musculus, po"}, "[2]": {"system": "audiogenic seizures in DBA/2 mice", "test": "anticonvulsant activity, audiogenic seizures in DBA/2 mice", "type": "in vivo", "conditions": "Mus musculus, ip, read-out: ID50-value, anticonvulsant (audiogenic seizures in DBA/2 mice)"}, "lethality at high dose": {"test": "lethality at high dose", "type": "in vivo", "conditions": "dose of 200 mg/kg i.p."}},
  "data": [
    {"smiles": "NCCCP(O)O", "note": "[Example 1, 3-aminopropylphosphonous acid]", "values": [
      {"measurement": "activity relative to baclofen (times more pronounced)", "setting": "GABAB receptor sites; compared with baclofen", "value": "at least 20 times"}
    ]},
    {"smiles": "NCC(CP(O)O)c1ccc(Cl)cc1", "note": "(stereo not drawn) [Example 8, 3-amino-2-(4-chlorophenyl)propylphosphonous acid]", "values": [
      {"measurement": "IC50", "setting": "GABAB receptor sites; read-out: IC50-value at the GABAB receptor site", "value": 35, "unit": "nM"},
      {"measurement": "ED50", "setting": "rotarod mice", "value": "6 to 9", "unit": "mg/kg"},
      {"measurement": "ED50", "setting": "[1]", "value": 4, "unit": "mg/kg"},
      {"measurement": "ED50", "setting": "[2]", "value": 6, "unit": "mg/kg"},
      {"measurement": "deaths", "setting": "lethality at high dose", "value": "no deaths were observed"}
    ]}
  ]
}
